Test results: patent US20090062273A1, “3-H-pyrazolopyridines and salts thereof, pharmaceutical compositions comprising same, methods of preparing same and uses of same” (priority 2006, published 2009)

target: T1, human insuline receptor (Ins-R) (Homo sapiens, UniProt P06213); experiment: InsR HTRF assay (selectivity vs. Tie2 assay 2); assay type: biochemical; conditions: IC50 assay 4/IC50 assay 2
T1 construct: GST-tagged recombinant kinase domain of the human insuline receptor; GST; purchased ProQinase, Freiburg, Germany; host or cells: SF-9 cells
T1 sequence (P06213 1023-1298 limits assumed): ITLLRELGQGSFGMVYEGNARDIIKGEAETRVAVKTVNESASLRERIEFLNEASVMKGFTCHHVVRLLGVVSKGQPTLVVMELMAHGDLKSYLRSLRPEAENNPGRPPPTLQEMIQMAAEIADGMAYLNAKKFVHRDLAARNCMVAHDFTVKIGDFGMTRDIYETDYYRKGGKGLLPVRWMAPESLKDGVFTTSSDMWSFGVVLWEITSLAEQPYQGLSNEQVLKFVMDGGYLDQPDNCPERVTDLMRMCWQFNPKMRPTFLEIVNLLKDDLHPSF
Method: Inhibitory activity of compounds against the kinase activity of the insulin receptor was quantified employing the Ins-R HTRF assay as described in the following paragraphs.
GST-tagged recombinant kinase domain of the human insuline receptor (Ins-R, purchase from ProQinase, Freiburg, Germany) expressed in SF-9 cells was used as kinase. As substrate for the kinase reaction biotinylated poly-(Glu,Tyr) (Cis biointernational, France) was used.
Ins-R was incubated for 20 min at 22° C. in the presence of different concentrations of test compounds in 5 μl assay buffer [50 mM Hepes/NaOH pH 7, 15 mM MnCl2, 1 mM dithiothreitol, 0.1 μM sodium ortho-vanadate, 0.015% (v/v) PEG20000, 10 μM adenosine-tri-phosphate (ATP), 0.3 μg/ml substrate, 1% (v/v) dimethylsulfoxide]. The concentration of Ins-R was adjusted depending of the activity of the enzyme lot and was chosen appropriate to have the assay in the linear range, typical concentrations were in the range of 10 pg/μL. The reaction was stopped by the addition of 5 μl of a solution of HTRF detection reagents (0.1 μM streptavidine-XLent and 1 nM PT66-Eu-Chelate, an europium-chelate labelled anti-phospho-tyrosine antibody from Perkin Elmer) in an aqueous EDTA-solution (80 mM EDTA, 0.2% (w/v) bovine serum albumin in 50 mM HEPES/NaOH pH 7.0).
The resulting mixture was incubated 1 h at 22° C. to allow the binding of the biotinylated phosphorylated peptide to the streptavidine-XLent and the PT66-Eu-Chelate. Subsequently the amount of phosphorylated substrate was evaluated by measurement of the resonance energy transfer from the PT66-Eu-Chelate to the streptavidine-XLent. Therefore, the fluorescence emissions at 620 nm and 665 nm after excitation at 350 nm was measured in a HTRF reader, e.g. a Rubystar (BMG Labtechnologies, Offenburg, Germany) or a ViewLux (Perkin-Elmer). The ratio of the emissions at 665 nm and at […] was taken as the measure for the amount of phosphorylated substrate. The data were normalised (enzyme reaction without inhibitor=0% inhibition, all other assay components but no enzyme=100% inhibition) and IC50 values were calculated by a 4 parameter fit using an inhouse software.

SMILES | Selectivity vs. InsR
Cn1ncc2c(-c3ccc(NC(=O)Nc4cc(C(F)(F)F)ccc4F)cc3)cncc21 [Example 1.2, 1-(2-Fluoro-5-trifluoromethyl-phenyl)-3-[4-(1-methyl-1H-pyrazolo[3,4-c]pyridin-4-yl)-phenyl]-urea] | >50fold
Cc1ccc(F)c(NC(=O)Nc2ccc(-c3cncc4c3cnn4C)cc2)c1 [Example 1.3, 1-(2-Fluoro-5-methyl-phenyl)-3-[4-(1-methyl-1H-pyrazolo[3,4-c]pyridin-4-yl)-phenyl]-urea] | >50fold
Cn1ncc2c(-c3ccc(NC(=O)Nc4cccc(C(F)(F)F)c4)cc3)cncc21 [Example 1.4, 1-[4-(1-Methyl-1H-pyrazolo[3,4-c]pyridin-4-yl)-phenyl]-3-(3-trifluoromethyl-phenyl)-urea] | >50fold
CCc1cccc(NC(=O)Nc2ccc(-c3cncc4c3cnn4C)cc2)c1 [Example 1.5, 1-(3-Ethyl-phenyl)-3-[4-(1-methyl-1H-pyrazolo[3,4-c]pyridin-4-yl)-phenyl]-urea] | >50fold
Cn1ncc2c(-c3ccc(NC(=O)Nc4cc(C(F)(F)F)ccn4)cc3)cncc21 [Example 1.9, 1-[4-(1-Methyl-1H-pyrazolo[3,4-c]pyridin-4-yl)-phenyl]-3-(4-trifluoromethyl-pyridin-2-yl)-urea] | >50fold
Cn1ncc2c(-c3ccc(NC(=O)Nc4cc(C(F)(F)F)ccc4Cl)cc3)cncc21 [Example 1.13, 1-(2-Chloro-5-trifluoromethyl-phenyl)-3-[4-(1-methyl-1H-pyrazolo[3,4-c]pyridin-4-yl)-phenyl]-urea] | >50fold
Cn1ncc2c(-c3ccc(NC(=O)Nc4cccc(C(F)(F)F)c4)c(F)c3)cncc21 [Example 3.1, 1-[2-Fluoro-4-(1-methyl-1H-pyrazolo[3,4-c]pyridin-4-yl)-phenyl]-3-(3-trifluoromethyl-phenyl)-urea] | >50fold
Cc1cc(-c2cncc3c2cnn3C)ccc1NC(=O)Nc1cccc(C(F)(F)F)c1 [Example 4.1, 1-[2-Methyl-4-(1-methyl-1H-pyrazolo[3,4-c]pyridin-4-yl)-phenyl]-3-(3-trifluoromethyl-phenyl)-urea] | >50fold
CN(C(=O)Nc1cccc(C(F)(F)F)c1)c1ccc(-c2cncc3c2cnn3C)cc1 [Example 6.1, 1-Methyl-1-[4-(1-methyl-1H-pyrazolo[3,4-c]pyridin-4-yl)-phenyl]-3-(3-trifluoromethyl-phenyl)-urea] | >25fold
Cn1ncc2c(-c3ccc(NC(=O)Nc4cc(C(F)(F)F)ccc4F)c(F)c3)cncc21 [Example 6.3, 1-[2-Fluoro-4-(1-methyl-1H-pyrazolo[3,4-c]pyridin-4-yl)-phenyl]-3-(2-fluoro-5-trifluoromethyl-phenyl)-urea] | >50fold
CN1CCN(Cc2ccc(NC(=O)Nc3ccc(-c4cncc5c4cnn5C)cc3)cc2C(F)(F)F)CC1 [Example 6.4, 1-[4-(4-Methyl-piperazin-1-ylmethyl)-3-trifluoromethyl-phenyl]-3-[4-(1-methyl-1H-pyrazolo[3,4-c]pyridin-4-yl)-phenyl]-urea] | >50fold
O=C(Nc1ccc(-c2cncc3c2cnn3CCO)cc1F)Nc1cc(C(F)(F)F)ccc1F [Example 8.1, 1-{2-Fluoro-4-[1-(2-hydroxy-ethyl)-1H-pyrazolo[3,4-c]pyridin-4-yl]-phenyl}-3-(2-fluoro-5-trifluoromethyl-phenyl)-urea] | >50fold
O=C(Nc1ccc(-c2cncc3c2cnn3CCO)cc1)Nc1cc(C(F)(F)F)ccc1F [Example 8.2, 1-(2-Fluoro-5-trifluoromethyl-phenyl)-3-{4-[1-(2-hydroxy-ethyl)-1H-pyrazolo[3,4-c]pyridin-4-yl]-phenyl}-urea] | >50fold
